Patent US20230119013A1, “N-CYANOPYRROLIDINES WITH ACTIVITY AS USP30 INHIBITORS” (MISSION THERAPEUTICS LIMITED, priority 2020, published 2023)
Like-named read-outs stand apart in the source and are kept apart here. Each block holds one compound with its values, some of them ahead of it.

What was measured:
UCHL1 = target: T1, UCHL1 (Homo sapiens, UniProt P09936); assay: DUB IC50 UCHL1; assay type: biochemical
T1 sequence (P09936 1-223): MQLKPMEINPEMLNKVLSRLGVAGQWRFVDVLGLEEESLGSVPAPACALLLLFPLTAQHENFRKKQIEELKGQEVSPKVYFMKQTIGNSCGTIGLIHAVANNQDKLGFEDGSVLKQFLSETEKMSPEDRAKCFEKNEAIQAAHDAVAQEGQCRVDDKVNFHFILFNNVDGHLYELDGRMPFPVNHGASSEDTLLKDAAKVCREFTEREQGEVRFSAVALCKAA

USP30 = target: T2, USP30 (Homo sapiens, UniProt Q70CQ3); assay: USP30 biochemical IC50 assay (fluorescence polarisation)
T2 construct: purchased Boston Biochem E582
T2 sequence (Q70CQ3 57-517 limits assumed): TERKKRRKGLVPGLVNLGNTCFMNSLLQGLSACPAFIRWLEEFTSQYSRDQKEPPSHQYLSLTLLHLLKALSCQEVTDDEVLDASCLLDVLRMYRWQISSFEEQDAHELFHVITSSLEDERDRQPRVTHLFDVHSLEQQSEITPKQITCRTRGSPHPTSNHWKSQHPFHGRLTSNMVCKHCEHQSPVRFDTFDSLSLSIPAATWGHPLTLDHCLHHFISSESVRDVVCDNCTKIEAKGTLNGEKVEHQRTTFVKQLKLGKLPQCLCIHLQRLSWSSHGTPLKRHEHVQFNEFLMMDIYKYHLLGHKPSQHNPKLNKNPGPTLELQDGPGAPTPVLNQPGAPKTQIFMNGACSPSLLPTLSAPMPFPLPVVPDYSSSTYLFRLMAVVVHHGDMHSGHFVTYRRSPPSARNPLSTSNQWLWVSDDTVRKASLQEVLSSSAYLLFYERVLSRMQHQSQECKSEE
Experimental: Dilution plates were prepared at 21 times the final concentration (2100 μM for a final concentration of 100 μM) in 50% DMSO in a 96-well polypropylene V-bottom plate (Greiner #651201). A typical 8-point dilution series would be 100, 30, 10, 3, 1, 0.3, 0.1, 0.03 μM final. Reactions were performed in duplicate in black 384 well plates (small volume, Greiner 784076) in a final reaction volume of 21 μl. Either 1 μl of 50% DMSO or diluted compound was added to the plate. USP30 (Boston Biochem #E582) was diluted in reaction buffer (40 mM Tris, pH 7.5, 0.005% Tween 20, 0.5 mg/ml BSA, 5 mM beta-mercaptoethanol) to achieve a final assay concentration of 4 nM, and 10 μl of diluted USP30 was added to the compound. Enzyme and compound were incubated for 30 min at room temp. Reactions were initiated by the addition of 50 nM of TAMRA labelled peptide linked to ubiquitin via an iso-peptide bond as fluorescence polarisation substrate. Reactions were read immediately after addition of substrate and following a 2-hour incubation at room temperature. Readings were performed on a Pherastar Plus (BMG Labtech). λ Excitation 540 nm; Emission 590 nm.

TOM20 ubiquitylation = assay: TOM20-ubiquitylation assay; assay type: cell-based, human; details: antimycin A/oligomycin mitophagy trigger
Excerpt: Human cell lines can be challenged with mitochondrial depolarizing agents (ionophores (eg. CCCP, valinomycin), mitochondrial complex inhibitors (oligomycin, antimycin A)) to induce ubiquitylation of TOM20, which is then further promoted in the presence of USP30 inhibitors. TOM20 ubiquitylation is subsequently assessed through western blotting of the cell lysates, with TOM20 ubiquitylation adduct detection possible due to an 8 kDa molecule weight increase for each molecule of ubiquitin added, resulting in laddering of a TOM20 immunoreactive band. TOM20-ubiquitylation levels can be quantified using chemiluminescence densitometry of laddered immunoreactive bands.

[1] = system: USP2, USP10, USP16, USP21, USP22, USP25, USP28; assay: DUB IC50, seven DUBs; assay type: biochemical; details: for DUB selectivity preference for USP30 v 7 DUBs: range over the seven DUBs
[2] = system: T3, USP2, USP10, USP16, USP21, USP22, USP25, USP28; assay: DUB IC50, seven DUBs; assay type: biochemical; details: range over the seven DUBs
T3 construct: DUB IC50 (μM) USP2, USP10, USP16, USP21, USP22, USP25, USP28; other: range over the seven DUBs

[3] = Plasma free fraction by equilibrium dialysis; assay type: in vitro ADME; details: mouse plasma; read-out: Binding Mouse Plasma fu, p
Excerpt: (§1) log P: partition coefficient; lipophilicity measurement. log D: distribution co-efficient; lipophilicity measurement. TPSA: topological polar surface area. Turbidimetric solubility: Test compound solution prepared in DMSO diluted into aqueous buffer. Turbidimetry is used as the end-point by measuring absorbance at 620 nm. FaSSIF: simulated intestinal fluid in fasted state measured at pH 6.5. Hep Cl mouse: in vitro hepatocyte clearance in mouse cells. Hep Cl human: in vitro hepatocyte clearance in human cells. Plasma fu,p: The free fraction of a compound in plasma preparation determined by in vitro equilibrium dialysis. It is understood that only unbound (free) compound is capable of engaging with the target. Brain fu,br: The free fraction of a compound in brain homogenate preparation determined by in vitro equilibrium dialysis. It is understood that only unbound (free) compound is capable of engaging with the target. Clu: in vitro clearance. Clu as defined here is the scaled clearance, in turn calculated from the intrinsic clearance. The intrinsic clearance is the predicted clearance due to hepatic metabolic reactions, determined from incubation of a compound in a hepatocyte preparation. […] Cl in vivo clearance: Pharmacokinetic measurement of the volume of plasma (or any matrix) from which a substance is completely removed per unit time.

hepatocyte = assay: Hepatocyte clearance mouse; assay type: in vitro ADME; details: mouse hepatocytes
Excerpt: as §1

Mouse plasma stability = assay type: in vitro ADME; details: read-out: Stability Mouse plasma t1/2
[4] = system: HCT116 human colorectal carcinoma cells; assay: In vitro cytotoxicity (Cell Tox), alamarBlue; assay type: cell-based; details: HCT-116, 96-hour continual compound exposure
Experimental: In Vitro Cytotoxicity (Cell Tox): Measured in HCT116 human colorectal carcinoma cells using alamarBlue™ as the assay endpoint. Compound cytotoxicity was measured over a period of 96-hour continual compound exposure.

[5] = system: cathepsins B, K, L, S and V; assay: Cathepsin IC50, summary over B, K, L, S, V; assay type: biochemical; details: K, L
[6] = system: T4, cathepsins B, K, L, S and V; assay: Cathepsin IC50, summary over B, K, L, S, V; assay type: biochemical; details: range over the five cathepsins
T4 construct: Cathepsin IC50 (μM) B, K, L, S, V; other: range over the five cathepsins

- DUB selectivity preference for USP30 v UCHL1 (UCHL1): 4.5
- IC50 (UCHL1): 0.77 µM
- fold more potent against USP30 than UCHL1 (UCHL1): 4.5 fold
- IC50 (USP30; read-out: DUB IC50 (μM) USP30): 0.172 µM
- IC50 (USP30; read-out: USP30 IC50): 0.172 µM
SMILES: N#Cc1ccc(-c2cnc(NC(=O)[C@H]3CCN(C#N)C3)s2)cc1OC(F)(F)F [B, reference compound]

- fold more potent against USP30 than UCHL1 (UCHL1): 0.8 fold
SMILES: N#CN1CC[C@H](C(=O)Nc2ncc(-c3ccccc3)s2)C1 [C, reference compound]

- fold more potent against USP30 than UCHL1 (UCHL1): 1.5 fold
SMILES: CC1CC(C(=O)Nc2ncc(-c3ccccc3)s2)CN1C#N (stereo not drawn) [D, reference compound]

- IC50 [2]: > 300 µM
- fraction unbound [3]: 0.036
- Hepatocyte Cl mouse scaled Clu (hepatocyte): 97.4 mL/min/kg
- DUB selectivity preference for USP30 v UCHL1 (UCHL1): 37500
- IC50 (UCHL1): > 300 µM
- half-life (Mouse plasma stability): > 2 h
- fold more potent against USP30 than Reference Example A (USP30; biochemical assay): 9 fold
- fold more potent against USP30 than Reference Example B (USP30; biochemical assay): 22 fold
- fold more potent against USP30 than Reference Example C (USP30; biochemical assay): 39 fold
- fold more potent against USP30 than Reference Example D (USP30; biochemical assay): 550 fold
- IC50 (USP30; read-out: USP30 IC50): 0.008 µM
SMILES: COC[C@H]1C[C@@H](NC(=O)c2ncc(-c3cccc(OC(F)(F)F)c3)o2)CN1C#N [Example 3, N-((3R,5R)-1-Cyano-5-(methoxymethyl)pyrrolidin-3-yl)-5-(3-(trifluoromethoxy)phenyl)oxazole-2-carboxamide]
- TOM20-Ub 1.5-fold gain EC1.5x (μM) (TOM20 ubiquitylation): 0.210 (n = 1) μM
- DUB selectivity preference for USP30 v 7 DUBs [1]: >37500
- EC50 [4]: 23900 nM

- IC50 [2]: 0.19 to 9.9 µM
- IC50 [6]: 0.79 to 8.8 µM
SMILES: COc1cccc(-c2cc(C(=O)N[C@@H]3CCN(C#N)C3)on2)c1 [Reference Example A, reference compound]
- fold more potent against USP30 than against each of the seven DUBs, at a minimum ([1]; USP2, USP10, USP16, USP21, USP22, USP25 and USP28): 2.7 fold
- DUB selectivity preference for USP30 v 7 DUBs [1]: 2.7-141
- fold more potent against USP30 than against each of the cathepsins, at a minimum ([5]; cathepsins B, S and V): 11 fold
- Selectivity preference for USP30 v cathepsins ([5]; range over cathepsins B, S, V): 11-126
